Data as given in US12528777B2, “Quinazolinones derivatives for treatment of non-alcoholic fatty liver disease, preparation and use thereof” (Council of Scientific and Industrial Research, priority 2020, dated 2026).
Entries after “also recorded” stand apart in the source; their conditions may differ.

What was measured:
COP1 [1] = biological target: T1, COP1 (Homo sapiens, UniProt Q8NHY2); test: Immunoprecipitation assay of COP1 autoubiquitination in HepG2 cells; type: cell-based; conditions: 5 μM, 24 hours, MG-132
T1 sequence (Q8NHY2 whole entry): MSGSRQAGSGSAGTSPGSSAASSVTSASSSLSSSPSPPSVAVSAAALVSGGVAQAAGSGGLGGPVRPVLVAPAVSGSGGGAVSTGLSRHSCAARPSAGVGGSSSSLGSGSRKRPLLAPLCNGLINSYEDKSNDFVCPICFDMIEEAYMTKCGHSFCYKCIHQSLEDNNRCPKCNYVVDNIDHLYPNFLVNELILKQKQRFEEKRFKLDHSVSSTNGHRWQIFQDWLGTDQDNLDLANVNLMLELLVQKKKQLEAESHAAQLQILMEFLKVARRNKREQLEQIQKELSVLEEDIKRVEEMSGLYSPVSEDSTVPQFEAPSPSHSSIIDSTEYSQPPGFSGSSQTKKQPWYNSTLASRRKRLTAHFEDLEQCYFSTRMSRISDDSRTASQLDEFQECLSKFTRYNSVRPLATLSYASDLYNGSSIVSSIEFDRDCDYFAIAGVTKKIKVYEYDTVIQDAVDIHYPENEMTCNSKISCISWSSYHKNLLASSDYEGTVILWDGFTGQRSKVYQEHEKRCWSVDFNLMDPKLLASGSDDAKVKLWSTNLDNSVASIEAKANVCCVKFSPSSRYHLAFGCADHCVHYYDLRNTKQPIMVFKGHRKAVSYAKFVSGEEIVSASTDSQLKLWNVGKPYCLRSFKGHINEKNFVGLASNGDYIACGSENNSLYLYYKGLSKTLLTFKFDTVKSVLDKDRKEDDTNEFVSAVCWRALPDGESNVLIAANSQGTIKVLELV
Experimental: COP1 is capable of auto ubiquitinating its own self and getting degraded via the proteasomal pathway. To probe into this, HepG2 cells were co-transfected with HA tagged Ubiquitin and myc-flag tagged COP1. The transfected cells were treated with 5 μM of compounds 9, 10, 107 and 238 for 24 hours. MG-132, a proteasomal inhibitor, was added 4 hours before harvesting the cells. Immune complexes were pulled down with anti-myc antibody and immunoblot was done using anti-HA antibody. […] Thus, the compounds of the present disclosure could be potent therapeutic targets by being able to block the proteasomal degradation of ATGL which would then be able to carry out its lipolytic action and reverse the symptoms of steatosis.
For checking the autoubiquitination status of COP1, HepG2 cells were cotransfected with 2 μg each of Myc-DDK-COP1 and HA-Ub plasmids using Lipofectamine 2000 reagent (Invitrogen) in OptiMEM media (HiMedia). The rest of the procedure is similar to that done for Myc-ATGL.

COP1 [2] = biological target: T1, COP1; test: In vitro ubiquitination of purified ATGL by COP1 with UbcH6; type: biochemical; design: host or cells: HEK293A; conditions: 5 μM compound, COP1 overexpressing HEK293A lysate
Description: Purification of ATGL protein and obtaining COP1 overexpressing cell lysate: Myc-ATGL plasmid and Myc-DDK-COP1 plasmid ([…] each) were transfected separately in cultured HEK293A cells with the help of Lipofectamine2000 (Invitrogen). Cells were harvested in Lysis Buffer and protein solution was extracted as described previously. The Lysis Buffer used to harvest COP1 overexpressing cells had 0.1% SDS supplemented in it. The concentration of protein was estimated using Bradford assay. For source of E3 ligase, the total cell lysate from COP1 overexpressing HEK293A cells were used.
For purification of Myc-ATGL: 1 ml of Ni^2+-NTA resin (Roche) was taken in a 15 ml centrifuge tube and centrifuged at 2000 RPM for 5 minutes. The upper ethanol layer was discarded and the pellet was washed in 1×PBS twice to remove any remaining traces of ethanol. The pellet was finally washed once with Lysis Buffer for equilibration. […] The tube was incubated overnight at 4° C. in a rotary shaker.
The next day, the solution was centrifuged at 2000 RPM for 10 minutes and the supernatant collected. Lysis Buffer (containing protease inhibitor cocktail twice the previous concentration) was used for washing the beads twice to remove non-specific and unattached reactants in a stringent condition. The beads were finally washed once with 1×PBS containing the same amount of protease inhibitor for equilibration. 300 μl of 500 mM Imidazole (Sigma Aldrich) solution in 1×PBS was added to the resin for elution of ATGL and centrifuged at 2000 RPM for 30 minutes and the eluted protein was collected. To the separated resin, 300 μl of 1M Imidazole solution was added and centrifuged at 2000 RPM for 30 minutes and the second elute was collected. […] of eluted protein from each elution was boiled with 5 μl of Laemmli's buffer at 95° C. for 10 minutes and run in 10% SDS-PAGE gel. The supernatant collected before elution of ATGL and the proteins still attached to the Ni^2+-NTA resin were also run in the SDS-PAGE. The resolved proteins were subsequently transferred on PVDF membranes and probed with anti-myc primary antibody to check the presence of purified ATGL in the elute. Also to check the yield of the purified protein, 40 μl of the elute was run in 10% SDS page and stained with Coomassie Brilliant Blue solution followed by destaining with methanol, glacial acetic acid and water in a 50:40:10 ratio.
For identifying the E2 ubiquitin-conjugating enzyme responsible for ATGL ubiquitination by COP1, an in vitro ubiquitinylation kit (Enzo Life Sciences) was used. The assay was reconstituted as per manufacturer's protocol with the panel of E2 conjugating enzymes provided and other required components at the mentioned concentrations. The reaction was carried out for 6 hours following which it was quenched as per directions with the provided 2× non-reducing gel buffer and then analysed by western blotting.
Having identified the E2 ubiquitin conjugating enzyme as UbcH6, ubiquitination assay was set up in vitro as described previously with 5 μM of the compound 9, 107, 171, 179 and 73 followed by quenching and analysis by western blotting.
Ubiquitination of a target protein is carried out in a three step process involving three different enzymes: E1 ubiquitin activating enzyme, E2 ubiquitin conjugating enzyme and E3 ubiquitin ligase. In humans, there is only one E1 ubiquitin activating enzyme and multiple E2 and E3 enzymes. […]

[3] = Lipophilicity assay (octanol/buffer); type: physicochemical; conditions: for logD: n-octanol / 10 mM sodium phosphate buffer pH 7.4, LC-UV; for Lipophilicity class from Log D: pH 7.4
Experimental: 1.56 g NaH2PO4·2H2O was dissolved in 0.5 L water in a 1 L beaker. After adjusting pH to 7.4 using NaOH solution, the volume was made up to 1 L. Equal volumes of sodium phosphate buffer (10 mM, pH 7.4) and n-octanol were added to a separation funnel and mixed thoroughly by shaking and inverting the funnel several times. The two layers were allowed to separate for overnight and then dispensed in two separate glass bottles. 10 mM stock solution was prepared in 100% DMSO and stored at 4° C. 495 μL of organic phase (1-octanol) was added to each well of a 2 mL deep well plate, followed by 495 μL of buffer and 10 μL of test compound was added. The plate was incubated for 3 hr at room temperature on a plate shaker at 500 rpm. After incubation, the samples were allowed to equilibrate for 20 min and then centrifuged at 4000 rpm for 30 min for complete phase separation and analysed by LC-UV.
Log D=Log (area of octanol/area of buffer)

Row | logD [3] | Lipophilicity class from Log D [3] | SMILES | COP1 autoubiquitination in HepG2 cells (COP1 [1]) | ATGL ubiquitination by COP1 in vitro (COP1 [2])
1 | 1.69 | ideal lipophilicity | COCC(C)n1cnc2ccc(NC(=O)Nc3cccc(C(C)=O)c3)cc2c1=O (stereo not shown) [Compound 179, 1-(3-acetylphenyl)-3-(3-(1-methoxypropan-2-yl)-4-oxo-3,4-dihydroquinazolin-6-yl)urea] |  | effective in reducing the ubiquitination of ATGL by COP1; also recorded: significant efficacy in curbing ATGL ubiquitination by COP1
2 | 0.42 | hydrophilic | COCCn1c(-c2cccnc2)nc2ccc(NC(=O)Nc3cccc(C(C)=O)c3)cc2c1=O [Compound 215, 1-(3-acetylphenyl)-3-(3-(2-methoxyethyl)-4-oxo-2-(pyridin-3-yl)-3,4-dihydroquinazolin-6-yl)urea] |  | 
3 | 0.19 | hydrophilic | COCCn1c(-c2ccncc2)nc2ccc(NC(=O)Nc3cccc(C(C)=O)c3)cc2c1=O [Compound 219, 1-(3-acetylphenyl)-3-(3-(2-methoxyethyl)-4-oxo-2-(pyridin-4-yl)-3,4-dihydroquinazolin-6-yl)urea] |  | 
4 | 1.6 | ideal lipophilicity | COCCn1c(CN2CCCCC2)nc2ccc(NC(=O)Nc3cccc(C(C)=O)c3)cc2c1=O [Compound 238, 1-(3-acetylphenyl)-3-(3-(2-methoxyethyl)-4-oxo-2-(piperidin-1-ylmethyl)-3,4-dihydroquinazolin-6-yl)urea] | markedly reduce COP1's auto ubiquitination property | 

The next lines start with the compound.

Row | SMILES | logD [3] | Lipophilicity class from Log D [3] | COP1 autoubiquitination in HepG2 cells (COP1 [1]) | ATGL ubiquitination by COP1 in vitro (COP1 [2])
5 | COCCn1cnc2ccc(NC(=O)Nc3cccc(C(C)=O)c3)cc2c1=O [Compound 9, 1-(3-acetylphenyl)-3-(3-(2-methoxyethyl)-4-oxo-3,4-dihydroquinazolin-6-yl)urea] |  |  | effective in reducing; also recorded: markedly reduce COP1's auto ubiquitination property | effective in reducing the ubiquitination of ATGL by COP1; also recorded: significant efficacy in curbing ATGL ubiquitination by COP1
6 | COCCn1c(C)nc2ccc(NC(=O)Nc3cccc(C(C)=O)c3)cc2c1=O [Compound 107, 1-(3-acetylphenyl)-3-(3-(2-methoxyethyl)-2-methyl-4-oxo-3,4-dihydroquinazolin-6-yl)urea] |  |  | effective in reducing; also recorded: markedly reduce COP1's auto ubiquitination property | effective in reducing the ubiquitination of ATGL by COP1; also recorded: significant efficacy in curbing ATGL ubiquitination by COP1
7 | CC(=O)c1cccc(NC(=O)Nc2ccc3ncn(CCCN4CCOCC4)c(=O)c3c2)c1 [Compound 139, 1-(3-acetylphenyl)-3-(3-(3-morpholinopropyl)-4-oxo-3,4-dihydroquinazolin-6-yl)urea] | -0.5 | hydrophilic |  | 
